From patent US20060069132A1, “Azolecarboxamide herbicides” (priority 2004, published 2006)

Legend:
[1] = tested on: Italian ryegrass; experiment: Test C postemergence herbicide test; assay type: in vivo, Lolium multiflorum; details: postemergence, scale 0 to 100
Method in brief: (§1)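 Postemergence sprays applied to plants 2 to 18 cm tall (1- to 4-leaf stage); paddy species grown to 2-leaf stage under flooding. After 12 to 14 days in greenhouse, visual rating versus untreated controls on 0–100 scale (0 no effect, 100 complete control).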

[2] = tested on: large crabgrass; experiment: Test E pre-/postemergence herbicide test; assay type: in vivo, Digitaria sanguinalis
Method in brief: (§2)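 Ratings from 0 (no effect) to 100 (complete control) were assigned by visual comparison with untreated plants 12 to 14 days after application. Test chemicals, formulated with surfactant in a non-phytotoxic solvent blend, were applied to soil after planting or to foliage of 2–18 cm plants.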

[3] = tested on: johnsongrass; experiment: Test E pre-/postemergence herbicide test; assay type: in vivo, Sorghum halepense
Method in brief: as §2

[4] = tested on: field bindweed; experiment: Test E pre-/postemergence herbicide test; assay type: in vivo, Convolvulus arvensis
Method in brief: as §2

[5] = tested on: wheat; experiment: Test C postemergence herbicide test; assay type: in vivo, Triticum aestivum; details: postemergence, scale 0 to 100
Method in brief: as §1

[6] = tested on: barnyardgrass; experiment: Test E pre-/postemergence herbicide test; assay type: in vivo, Echinochloa crus-galli
Method in brief: as §2

[7] = tested on: downy bromegrass; experiment: Test E pre-/postemergence herbicide test; assay type: in vivo, Bromus tectorum
Method in brief: as §2

[8] = tested on: guineagrass; experiment: Test E pre-/postemergence herbicide test; assay type: in vivo, Panicum maximum
Method in brief: as §2

[9] = tested on: downy bromegrass; experiment: Test C postemergence herbicide test; assay type: in vivo, Bromus tectorum
Method in brief: as §1

[10] = tested on: broadleaf signalgrass; experiment: Test E pre-/postemergence herbicide test; assay type: in vivo, Brachiaria platyphylla
Method in brief: as §2

[11] = tested on: green foxtail; experiment: Test C postemergence herbicide test; assay type: in vivo, Setaria viridis
Method in brief: as §1

[12] = tested on: common groundsel; experiment: Test E pre-/postemergence herbicide test; assay type: in vivo, Senecio vulgaris
From the text: (§3) Seeds of plant species selected from bipinnate beggarticks (Bidens bipinnata L.), hairy beggarticks (Bidens radiata Thuill.), bermudagrass (Cynodon dactylon (L.) Pers.), Surinam grass (Urochloa decumbens (Staph) R. D. Webster, previously named Brachiaria decumbens Stapf), large crabgrass (Digitaria sanguinalis (L.) Scop.), green foxtail (Setaria viridis (L.) P. Beauv.), goosegrass (Eleusine indica (L.) Gaertn.), johnsongrass (Sorghum halepense (L.) Pers.), kochia (Kochia scoparia (L.) Schrad.), pitted morningglory (Ipomoea lacunosa L.), purple nutsedge (Cyperus rotundus L.), common ragweed (Ambrosia elatior L.), mustard (Brassica nigra (L.) W. D. J. Koch), guineagrass (Panicum maximum Jacq.), dallisgrass (Paspalum dilatatum Poir.), barnyardgrass (Echinochloa crus-galli (L). P. Beauv.), southern sandbur (Cenchrus echinatus L.), common sowthistle (Sonchus oleraceous L.), prickly sida (Sida spinosa L.), Italian ryegrass (Lolium multiflorum Lam.), common purslane (Portulaca oleracea L.), broadleaf signalgrass (Brachiaria platyphylla (Griseb.) Nash), common groundsel (Senecio vulgaris L.), common chickweed (Stellaria media (L.) Vill/Cyr.), tropical spiderwort (Commelina benghalensis L.), annual bluegrass (Poa annua L.), downy bromegrass (Bromus tectorum L.), itchgrass (Rottboellia cochinchinensis (L.) L.f.), quackgrass (Elytrigia repens (L.) Nevski), Canada horseweed (Erigeron Canadensis L.), field bindweed (Convolvulus arvensis L.), spotted spurge (Euphorbia maculata L.), common mallow (Malva sylvestris (=s silvestris) L.), and Russian thistle (Salsola kali L. ssp. Ruthenica (Iljin) Soo) were planted and treated preemergence with test chemicals formulated in a non-phytotoxic solvent mixture which included a surfactant.
(§4) At the same time, plants selected from these weed species were treated with postemergence applications of some of the test chemicals formulated in the same manner. Plants ranged in height from 2 to 18 cm (1- to 4-leaf stage) for postemergence treatments. Treated plants and controls were maintained in a greenhouse for 12 to 14 days, after which time all species were compared to controls and visually evaluated. Plant response ratings, summarized in Table E, are based on a scale of 0 to 100 where 0 is no effect and 100 is complete control. A dash (-) response means no test result.

[13] = tested on: common purslane; experiment: Test E pre-/postemergence herbicide test; assay type: in vivo, Portulaca oleracea; details: Preemergence
From the text: as §3, §4

[14] = Preemergence, 62 g ai/ha, scale 0 to 100
[15] = Preemergence, 125 g ai/ha, scale 0 to 100
[16] = Preemergence, 250 g ai/ha, scale 0 (no effect) to 100 (complete control)
[17] = Preemergence, 500 g ai/ha, scale 0 (no effect) to 100 (complete control)
[18] = Postemergence, 250 g ai/ha, scale 0 to 100, 0 no effect, 100 complete control
[19] = postemergence, 125 g ai/ha, scale 0 to 100
[20] = postemergence, 62 g ai/ha, scale 0 to 100
[21] = Postemergence, 500 g ai/ha, scale 0 to 100
[22] = Postemergence, 250 g ai/ha, scale 0 to 100

## Cc1nn(C(C)(C)C)nc1C(=O)Nc1cccc(C(=O)N2CC=CC2)c1 [Compound 393]
[1]; 125 g ai/ha
  Plant response rating, Ryegrass, Italian: 60
[1]; 62 g ai/ha
  Plant response rating, Ryegrass, Italian: 55
[2]; [14]
  Plant response rating, Crabgrass, Large: 10
[2]; [15]
  Plant response rating, Crabgrass, Large: 80
[2]; [16]
  Plant response rating, Crabgrass, Large: 95
[2]; [17]
  Plant response rating, Crabgrass, Large: 100
[3]; [14]
  Plant response rating, Johnsongrass: 30
[3]; [15]
  Plant response rating, Johnsongrass: 60
[3]; [16]
  Plant response rating, Johnsongrass: 60
[3]; [17]
  Plant response rating, Johnsongrass: 80
[4]; [14]
  Plant response rating, Bindweed, Field: 0
[4]; [15]
  Plant response rating, Bindweed, Field: 20
[4]; [16]
  Plant response rating, Bindweed, Field: 60
[4]; [17]
  Plant response rating, Bindweed, Field: 70
[5]; 125 g ai/ha
  Plant response rating, Wheat: 40
[5]; 62 g ai/ha
  Plant response rating, Wheat: 35
[6]; [14]
  Plant response rating, Barnyardgrass: 0
[6]; [15]
  Plant response rating, Barnyardgrass: 60
[6]; [16]
  Plant response rating, Barnyardgrass: 80
[6]; [17]
  Plant response rating, Barnyardgrass: 80
[7]; [14]
  Plant response rating, Bromegrass, Downy: 0
[7]; [15]
  Plant response rating, Bromegrass, Downy: 10
[7]; [16]
  Plant response rating, Bromegrass, Downy: 60
[7]; [17]
  Plant response rating, Bromegrass, Downy: 80
[8]; [14]
  Plant response rating, Guineagrass: 10
[8]; [15]
  Plant response rating, Guineagrass: 70
[8]; [16]
  Plant response rating, Guineagrass: 90
[8]; [17]
  Plant response rating, Guineagrass: 95
[9]; [18]
  Plant response rating, Bromegrass, Downy: 55
[9]; [19]
  Plant response rating, Bromegrass, Downy: 45
[9]; postemergence, 31 g ai/ha, scale 0 to 100
  Plant response rating, Bromegrass, Downy: 40
[9]; [20]
  Plant response rating, Bromegrass, Downy: 40
[10]; [14]
  Plant response rating, Signalgrass: 0
[10]; [15]
  Plant response rating, Signalgrass: 30
[10]; [16]
  Plant response rating, Signalgrass: 75
[10]; [17]
  Plant response rating, Signalgrass: 85
[11]; [18]
  Plant response rating, Foxtail, Green: 65
[11]; [19]
  Plant response rating, Foxtail, Green: 65
[11]; [20]
  Plant response rating, Foxtail, Green: 60

## CCn1nc(C(C)(C)C)cc1C(=O)Nc1cccc(C(N)=O)n1 [Compound 162, 6-[[[3-(1,1-dimethylethyl)-1-ethyl-1H-pyrazol-5-yl]carbonyl]amino]-2-pyridinecarboxamide]
[2]; [21]
  Plant response rating, Crabgrass, Large: 95
[2]; [22]
  Plant response rating, Crabgrass, Large: 90
[2]; [14]
  Plant response rating, Crabgrass, Large: 50
[2]; [15]
  Plant response rating, Crabgrass, Large: 90
[2]; [16]
  Plant response rating, Crabgrass, Large: 95
[2]; [17]
  Plant response rating, Crabgrass, Large: 100
[2]; [19]
  Plant response rating, Crabgrass, Large: 50
[2]; [20]
  Plant response rating, Crabgrass, Large: 30
[3]; [21]
  Plant response rating, Johnsongrass: 100
[3]; [22]
  Plant response rating, Johnsongrass: 100
[3]; [14]
  Plant response rating, Johnsongrass: 60
[3]; [15]
  Plant response rating, Johnsongrass: 100
[3]; [16]
  Plant response rating, Johnsongrass: 100
[3]; [17]
  Plant response rating, Johnsongrass: 100
[3]; [19]
  Plant response rating, Johnsongrass: 80
[3]; [20]
  Plant response rating, Johnsongrass: 65
[12]; [21]
  Plant response rating, Groundsel: 100
[12]; [22]
  Plant response rating, Groundsel: 80
[12]; [14]
  Plant response rating, Groundsel: 10
[12]; [15]
  Plant response rating, Groundsel: 40
[12]; [16]
  Plant response rating, Groundsel: 80
[12]; [17]
  Plant response rating, Groundsel: 100
[12]; [19]
  Plant response rating, Groundsel: 30
[12]; [20]
  Plant response rating, Groundsel: 20
[4]; [21]
  Plant response rating, Bindweed, Field: 98
[4]; [22]
  Plant response rating, Bindweed, Field: 95
[4]; [14]
  Plant response rating, Bindweed, Field: 30
[4]; [15]
  Plant response rating, Bindweed, Field: 80
[4]; [16]
  Plant response rating, Bindweed, Field: 100
[4]; [17]
  Plant response rating, Bindweed, Field: 100
[4]; [19]
  Plant response rating, Bindweed, Field: 80
[4]; [20]
  Plant response rating, Bindweed, Field: 50
[6]; [21]
  Plant response rating, Barnyardgrass: 95
[6]; [22]
  Plant response rating, Barnyardgrass: 90
[6]; [14]
  Plant response rating, Barnyardgrass: 60
[6]; [15]
  Plant response rating, Barnyardgrass: 100
[6]; [16]
  Plant response rating, Barnyardgrass: 100
[6]; [17]
  Plant response rating, Barnyardgrass: 100
[6]; [19]
  Plant response rating, Barnyardgrass: 80
[6]; [20]
  Plant response rating, Barnyardgrass: 60
[7]; [21]
  Plant response rating, Bromegrass, Downy: 100
[7]; [22]
  Plant response rating, Bromegrass, Downy: 98
[7]; [14]
  Plant response rating, Bromegrass, Downy: 40
[7]; [15]
  Plant response rating, Bromegrass, Downy: 80
[7]; [16]
  Plant response rating, Bromegrass, Downy: 90
[7]; [17]
  Plant response rating, Bromegrass, Downy: 100
[7]; [19]
  Plant response rating, Bromegrass, Downy: 95
[7]; [20]
  Plant response rating, Bromegrass, Downy: 50
[8]; [21]
  Plant response rating, Guineagrass: 98
[8]; [22]
  Plant response rating, Guineagrass: 90
[8]; [14]
  Plant response rating, Guineagrass: 50
[8]; [15]
  Plant response rating, Guineagrass: 100
[8]; [16]
  Plant response rating, Guineagrass: 100
[8]; [17]
  Plant response rating, Guineagrass: 100
[8]; [19]
  Plant response rating, Guineagrass: 75
[8]; [20]
  Plant response rating, Guineagrass: 35
[10]; [21]
  Plant response rating, Signalgrass: 90
[10]; [22]
  Plant response rating, Signalgrass: 80
[10]; [15]
  Plant response rating, Signalgrass: 70
[10]; [16]
  Plant response rating, Signalgrass: 100
[10]; [17]
  Plant response rating, Signalgrass: 100
[10]; [19]
  Plant response rating, Signalgrass: 70
[10]; [20]
  Plant response rating, Signalgrass: 30
[13]; 62 g ai/ha, scale 0 to 100
  Plant response rating, Purslane: 100
[13]; 125 g ai/ha, scale 0 to 100
  Plant response rating, Purslane: 100
[13]; 250 g ai/ha, scale 0 (no effect) to 100 (complete control)
  Plant response rating, Purslane: 100
[13]; 500 g ai/ha, scale 0 (no effect) to 100 (complete control)
  Plant response rating, Purslane: 100
